Experimental data: US20160025704A1, “METHODS FOR IDENTIFYING NEUROPROTECTIVE PKC ACTIVATORS” (priority 2013, published 2016)

Legend:
[1] = test system: 5XFAD mice; test: Water maze learning and memory and amyloid deposition in 5XFAD mice; assay type: in vivo; conditions: 2 times/week from 2 months old
Description: Protocol: 5-month old 5XFAD mice were trained for 5-6 days (3-4 trials/day) to find a hidden platform (9 cm diameter), submerged about 2 cm below the water surface in the a maze pool with 114 cm diameter. After the training trials, a probe trial (a quadrant test or memory retention trial) was given with the platform removed to assess memory retention for its location by the distance the mouse moved in the quadrants. […] Non-treated groups (wild-type and transgenic (5×) mice) received the same vehicle volumes, mechanism of delivery, and frequency of administration as the treated groups

[2] = test system: Primary human neurons; test: Synaptogenicity in primary human neurons; assay type: cell-based; conditions: 0.27 nM
Procedure: Protocol: Primary human neurons were treated with either DCPLA-methyl ester (100 nM) or bryostatin-1 (0.27 nM).

[3] = test system: monomeric Aβ(1-42); test: Aβ peptide degradation by SH+hNEP cells; assay type: cell-based, human; conditions: 1 nM, 2.5 μg monomeric Aβ(1-42), 4 hours
Procedure: Protocol: Intact SH+hNEP cells were incubated with 2.5 μg of monomeric Aβ(1-42) for 4 hours in the absence or presence of bryostatin (Bryo, 1 nM). Some cells were cotreated with phosphoramidon (PA, 10 μM, a specific neprilysin inhibitor), Ro 32-0432 (Ro, 2 μM, a PKC inhibitor), or PA+Ro in the presence of bryostatin (1 nM) for 4 hours. Aβ peptide was then precipitated from the reactions by 20% trichloroacetic acid and immunoblotted with use of Aβ peptide 1-16 antibody (6E10). Arrow indicates the size of monomeric Aβ peptide (FIG. 18), which is around 4 kDa. Densitometry measurements of developed protein bands on Western blots were made and assigned as relative expression change (Mean+SEM of three independent experiments, **P<0.01, Bryo compared with untreated; #P<0.01, PA, Ro, or PA+Ro compared with Bryo.).

[4] = clinical trials, Varterasian et al. 2000; cited from earlier work
[5] = test system: GSK-3β; test: Phosphorylation of GSK-3β (Ser9) in hippocampus (Western Blot); assay type: in vivo, mice; conditions: 20 μg/m2 i.v., 2 doses/wk for 13 wk
[6] = test system: alpha-secretase; conditions: human fibroblasts; Etcheberrigaray et al. 2004; cited from earlier work
[7] = molecular target: T1, PKC-α (Mus musculus, UniProt P20444); test: PKC-α translocation by bryostatin in mouse brain (Western blot); assay type: in vivo; conditions: 30 and 120 minutes after administration
T1 construct: The effect of bryostatin on brain PKC translocation; from tissue; host or cells: brain of C57BL/6 mice

[8] = test system: sAPP-α; test: sAPP-α secretion in an Alzheimer's disease cell line; assay type: cell-based, human; conditions: AD cell line
Procedure: Protocol: An Alzheimer's disease cell line was incubated with bryostatin (0.1 nM), Benzolactam (0.1 nM or 1.0 μM), DMSO, pre-treated with staurosporin (100 nM) plus bryostatin (0.1 nM) for three hours. […] The graph units are relative to the vehicle, DMSO, alone (1).

[9] = molecular target: T2, PKC-ε (Mus musculus, UniProt P16054); test: PKC-ε activation and translocation by bryostatin in mouse brain (Western blot); assay type: in vivo
T2 construct: from tissue; host or cells: brain of C57BL/6 mice
T2 sequence (P16054 1-737): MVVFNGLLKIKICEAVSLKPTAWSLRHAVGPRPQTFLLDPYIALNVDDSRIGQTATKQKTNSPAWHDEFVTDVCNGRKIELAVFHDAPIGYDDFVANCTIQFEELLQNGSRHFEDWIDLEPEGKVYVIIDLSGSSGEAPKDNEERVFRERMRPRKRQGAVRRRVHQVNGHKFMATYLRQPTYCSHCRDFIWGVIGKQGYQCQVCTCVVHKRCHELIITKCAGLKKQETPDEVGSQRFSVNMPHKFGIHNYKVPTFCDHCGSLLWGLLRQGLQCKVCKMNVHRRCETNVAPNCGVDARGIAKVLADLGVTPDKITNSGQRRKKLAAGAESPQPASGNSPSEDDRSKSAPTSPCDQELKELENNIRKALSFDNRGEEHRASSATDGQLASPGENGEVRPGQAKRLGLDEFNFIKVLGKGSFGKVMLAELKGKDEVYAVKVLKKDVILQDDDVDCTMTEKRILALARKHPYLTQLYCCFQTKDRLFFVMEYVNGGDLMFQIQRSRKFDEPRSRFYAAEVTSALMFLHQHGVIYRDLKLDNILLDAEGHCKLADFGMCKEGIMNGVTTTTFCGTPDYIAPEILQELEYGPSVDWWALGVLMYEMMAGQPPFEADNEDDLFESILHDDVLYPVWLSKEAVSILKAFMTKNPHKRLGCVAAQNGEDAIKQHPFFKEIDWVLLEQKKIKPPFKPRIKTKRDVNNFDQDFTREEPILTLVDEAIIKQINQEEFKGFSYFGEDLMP
Procedure: Protocol: Male C57BL/6M mice (15-20 g, Charles River) were acclimatized for 7-8 days in a non-enriched environment, three mice per cage. Bryostatin (Tocris) was dissolved in DMSO, diluted into 0.9% saline, and injected into the tail vein at doses of 10 and 15 μg/m2. After a fixed period, the mice were anesthetized with CO2 and the brain was frozen on dry ice. Blood was mixed with 0.2 ml 1 mM EDTA in PBS, centrifuged at 100 g for 30 min, and plasma was frozen on dry ice. In some experiments, blood lymphocyte fractions were collected using Ficoll-Paque Plus reagent using the procedure recommended by the manufacturer. All animal procedures were approved by the institutional IACUC.
Activation and translocation of PKC-ε were measured by Western blotting after subcellular fractionation into cytosol and particulate fractions. Homogenates were centrifuged at 100,000×g for 20 min and cytosolic and particulate fractions were separated on 4-20% Tris-glycine SDS polyacrylamide gels, blotted onto nitrocellulose, and probed with isozyme specific antibodies. The blots were photographed in a GE ImageQuant at 16 bits/pixel and analyzed by vertical strip densitometry using Imal Unix software.
Bryostatin was injected into the tail vein of C57BL/6N mice at 10 and 15 μg/m2 (equivalent to 3.50 and 5.25 μg/kg), and brain PKC-ε concentration was measured using Western blots. Brain PKC-ε activation was biphasic, peaking at 0.5 h and slowly declined toward resting levels, even though bryostatin levels continued to increase. This is consistent with the short-lived activation of PKC established previously. […] The bryostatin concentration at 0.5 h was 0.029 nM.
The results of a dose dependence study of activation of PKCα and PKCε translocation by bryostatin, are shown below in FIG. 4 (measured 30 minutes after administration), and FIG. 5 (measured 120 minutes after administration). The effect of bryostatin on brain PKC translocation (an indicator of enzymatic activation) was also biphasic, with maximal effects observed at doses between 5 and 10 μg/m2.

Structure (SMILES) | amyloid deposition ([1]; 30 μg/kg intraperitoneal) | learning and memory deficits (water maze) ([1]; 30 μg/kg intraperitoneal) | co-localized staining of PSD-95 and synaptophysin in puncta (number of synapses) ([2]; 30 days) | survival, neuritic branching and connections ([2]; 40 days) | Aβ peptide degradation [3] | tumor growth promotion [4] | phosphorylation of GSK-3β (Ser9) in the hippocampus of fragile X mice [5] | activation of alpha-secretase (sAPP generation) [6] | PKC-α translocation in mouse brain [7] | sAPP-α secretion at lower concentration ([8]; 0.01 nM, time course) | amount of sAPP-α in the medium ([8]; 0.1 nM, 3 h incubation, relative to DMSO) | incubation time at which secretion is near maximal ([8]; 0.1 nM, time course) | potency in sAPP-α secretion compared with BL ([8]; both at 0.1 nM) | PKC-ε translocation in mouse brain ([9]; 30 and 120 minutes after administration) | downregulation of brain PKC-ε ([9]; tail vein 10 and 15 μg/m2, C57BL/6N mice) | time of peak brain PKC-ε activation ([9]; tail vein 10 and 15 μg/m2, C57BL/6N mice, biphasic) | amyloid deposition ([1]; 20 mg/m2 tail vein) | learning and memory deficits (water maze) ([1]; 20 mg/m2 tail vein)
CCC/C=C/C=C/C(=O)O[C@H]1/C(=C/C(=O)OC)C[C@H]2C[C@H]([C@@H](C)O)OC(=O)C[C@H](O)C[C@@H]3C[C@H](OC(C)=O)C(C)(C)[C@](O)(C[C@@H]4C/C(=C/C(=O)OC)C[C@H](/C=C/C(C)(C)[C@]1(O)O2)O4)O3 [Bryostatin, bryostatin-1] | reduced amyloid deposition | prevented learning (A, C) and memory deficits (B, D) | an increase in co-localized staining of PSD-95 and synaptophysin in puncta | improved survival with increased neuritic branching and connections | induces Aβ peptide degradation through neprilysin activation | does not promote tumor growth | increases phosphorylation of GSK-3β | activate the alpha-secretase | translocation was only observed by PKC-ε | much slower but had about the same effect on secretion after 120 min of incubation | dramatically enhanced the amount of sAPP-α in the medium | 160 min | more potent than another PKC activator, BL | translocation was only observed by PKC-ε | No downregulation below starting values was observed | 0.5 h | – | –
CCCCCC1CC1CC1CC1CCCCCCCC(=O)O (stereo not drawn) [DCPLA, 8-[2-(2-pentylcyclopropyl)methyl]-cyclopropaneoctanoic acid] | – | – | – | – | – | – | – | – | – | – | – | – | – | – | – | – | reduced amyloid deposition | prevented learning (A, C) and memory deficits (B, D)
